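GI50 is the concentration that inhibits growth by half. TGI denotes the concentration required for complete inhibition of growth.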
Assays:
Experiment in all cases: NCI tumour cell line growth inhibition, 384-well format; in the data active = GI50 below about 0.43 µM; inactive = the rest
SF-539 CNS = system: SF-539 CNS
T-47D breast = system: T-47D breast
SR leukemia = system: SR leukemia
HT29 colon = system: HT29 colon
A498 renal = system: A498 renal
HS 578T breast = system: HS 578T breast
MCF7 breast = system: MCF7 breast
NCI-H322M lung = system: NCI-H322M lung
SNB-75 CNS = system: SNB-75 CNS
786-0 renal = system: 786-0 renal
OVCAR-4 ovarian = system: OVCAR-4 ovarian
SN12C renal = system: SN12C renal
IGROV1 ovarian = system: IGROV1 ovarian
UACC-257 melanoma = system: UACC-257 melanoma
NCI-H460 NSCLC = system: NCI-H460 NSCLC
DU-145 prostate = system: DU-145 prostate
EKVX NSCLC = system: EKVX NSCLC
SK-MEL-5 melanoma = system: SK-MEL-5 melanoma
SW-620 colon = system: SW-620 colon
HCT-116 colon = system: HCT-116 colon
MDA-MB-468 breast = system: MDA-MB-468 breast
SF-295 CNS = system: SF-295 CNS
OVCAR-5 ovarian = system: OVCAR-5 ovarian
OVCAR-8 ovarian = system: OVCAR-8 ovarian
SK-MEL-2 melanoma = system: SK-MEL-2 melanoma
LOX IMVI melanoma = system: LOX IMVI melanoma
CCRF-CEM leukemia = system: CCRF-CEM leukemia
A549 NSCLC = system: A549 NSCLC
KM12 colon = system: KM12 colon
SF-268 CNS = system: SF-268 CNS
NCI-H226 lung = system: NCI-H226 lung
OVCAR-3 ovarian = system: OVCAR-3 ovarian
NCI-H522 lung = system: NCI-H522 lung
HCC-2998 colon = system: HCC-2998 colon
UO-31 renal = system: UO-31 renal
NCI-H23 lung = system: NCI-H23 lung
HCT-15 colon = system: HCT-15 colon
MDA-MB-231 breast = system: MDA-MB-231 breast
UACC-62 melanoma = system: UACC-62 melanoma
MALME-3M melanoma = system: MALME-3M melanoma
SK-MEL-28 melanoma = system: SK-MEL-28 melanoma
NCI/ADR-RES ovarian = system: NCI/ADR-RES ovarian
RPMI-8226 leukemia = system: RPMI-8226 leukemia
HL-60(TB) leukemia = system: HL-60(TB) leukemia
SK-OV-3 ovarian = system: SK-OV-3 ovarian
RXF 393 renal = system: RXF 393 renal
PC-3 prostate = system: PC-3 prostate

COc1cc(C)[nH]c(=O)c1CN1CCc2c(Cl)cc([C@H](OC)C3COC3)c(Cl)c2C1=O
> 100 µM: TGI (SF-539 CNS) | TGI (T-47D breast) | TGI (SR leukemia) | TGI (HT29 colon) | TGI (A498 renal) | TGI (HS 578T breast) | TGI (MCF7 breast) | TGI (NCI-H322M lung) | TGI (SNB-75 CNS) | TGI (786-0 renal) | TGI (OVCAR-4 ovarian) | TGI (SN12C renal) | TGI (IGROV1 ovarian) | TGI (UACC-257 melanoma) | TGI (NCI-H460 NSCLC) | TGI (DU-145 prostate) | TGI (EKVX NSCLC) | TGI (SK-MEL-5 melanoma) | TGI (SW-620 colon) | TGI (HCT-116 colon) | TGI (MDA-MB-468 breast) | TGI (SF-295 CNS) | TGI (OVCAR-5 ovarian) | TGI (OVCAR-8 ovarian) | TGI (SK-MEL-2 melanoma) | TGI (LOX IMVI melanoma) | TGI (CCRF-CEM leukemia) | TGI (A549 NSCLC) | TGI (KM12 colon) | TGI (SF-268 CNS) | TGI (NCI-H226 lung) | TGI (OVCAR-3 ovarian) | TGI (NCI-H522 lung) | TGI (HCC-2998 colon) | TGI (UO-31 renal) | TGI (NCI-H23 lung) | TGI (HCT-15 colon) | TGI (MDA-MB-231 breast) | TGI (UACC-62 melanoma) | TGI (MALME-3M melanoma) | TGI (SK-MEL-28 melanoma) | TGI (NCI/ADR-RES ovarian) | TGI (HL-60(TB) leukemia) | TGI (SK-OV-3 ovarian) | TGI (RXF 393 renal) | TGI (PC-3 prostate)
inactive: GI50 (SF-539 CNS) > 100 µM | GI50 (T-47D breast) > 91.9 µM | GI50 (SR leukemia) > 100 µM | GI50 (HT29 colon) > 100 µM | GI50 (A498 renal) > 100 µM | GI50 (HS 578T breast) > 100 µM | GI50 (MCF7 breast) > 100 µM | GI50 (NCI-H322M lung) > 100 µM | GI50 (SNB-75 CNS) > 100 µM | GI50 (786-0 renal) > 100 µM | GI50 (OVCAR-4 ovarian) > 100 µM | GI50 (SN12C renal) > 100 µM | GI50 (IGROV1 ovarian) > 100 µM | GI50 (UACC-257 melanoma) > 100 µM | GI50 (NCI-H460 NSCLC) > 100 µM | GI50 (DU-145 prostate) > 100 µM | GI50 (EKVX NSCLC) > 100 µM | GI50 (SK-MEL-5 melanoma) > 100 µM | GI50 (SW-620 colon) > 100 µM | GI50 (HCT-116 colon) > 100 µM | GI50 (MDA-MB-468 breast) > 100 µM | GI50 (SF-295 CNS) > 100 µM | GI50 (OVCAR-5 ovarian) > 100 µM | GI50 (OVCAR-8 ovarian) > 100 µM | GI50 (SK-MEL-2 melanoma) > 100 µM | GI50 (LOX IMVI melanoma) > 100 µM | GI50 (CCRF-CEM leukemia) > 75.8 µM | GI50 (A549 NSCLC) > 100 µM | GI50 (KM12 colon) > 100 µM | GI50 (SF-268 CNS) > 100 µM | GI50 (NCI-H226 lung) > 100 µM | GI50 (OVCAR-3 ovarian) > 100 µM | GI50 (NCI-H522 lung) > 100 µM | GI50 (HCC-2998 colon) > 100 µM | GI50 (UO-31 renal) > 100 µM | GI50 (NCI-H23 lung) > 100 µM | GI50 (HCT-15 colon) > 100 µM | GI50 (MDA-MB-231 breast) > 78.3 µM | GI50 (UACC-62 melanoma) > 100 µM | GI50 (MALME-3M melanoma) > 100 µM | GI50 (SK-MEL-28 melanoma) > 100 µM | GI50 (NCI/ADR-RES ovarian) > 100 µM | GI50 (HL-60(TB) leukemia) > 78.5 µM | GI50 (SK-OV-3 ovarian) > 100 µM | GI50 (RXF 393 renal) > 100 µM | GI50 (PC-3 prostate) > 100 µM
active: GI50 (RPMI-8226 leukemia) 0.0849 µM

C[C@@H](Oc1cc(NS(=O)(=O)N2CCC2)nc(SCc2cccc(F)c2F)n1)[C@@H](O)CO
34.3 µM: TGI (UO-31 renal)
> 100 µM: TGI (SF-539 CNS) | TGI (T-47D breast) | TGI (SR leukemia) | TGI (HT29 colon) | TGI (A498 renal) | TGI (HS 578T breast) | TGI (MCF7 breast) | TGI (NCI-H322M lung) | TGI (SNB-75 CNS) | TGI (786-0 renal) | TGI (OVCAR-4 ovarian) | TGI (SN12C renal) | TGI (IGROV1 ovarian) | TGI (UACC-257 melanoma) | TGI (NCI-H460 NSCLC) | TGI (DU-145 prostate) | TGI (EKVX NSCLC) | TGI (SK-MEL-5 melanoma) | TGI (SW-620 colon) | TGI (HCT-116 colon) | TGI (MDA-MB-468 breast) | TGI (SF-295 CNS) | TGI (OVCAR-5 ovarian) | TGI (OVCAR-8 ovarian) | TGI (SK-MEL-2 melanoma) | TGI (LOX IMVI melanoma) | TGI (CCRF-CEM leukemia) | TGI (A549 NSCLC) | TGI (KM12 colon) | TGI (SF-268 CNS) | TGI (NCI-H226 lung) | TGI (OVCAR-3 ovarian) | TGI (NCI-H522 lung) | TGI (HCC-2998 colon) | TGI (NCI-H23 lung) | TGI (HCT-15 colon) | TGI (MDA-MB-231 breast) | TGI (UACC-62 melanoma) | TGI (MALME-3M melanoma) | TGI (SK-MEL-28 melanoma) | TGI (NCI/ADR-RES ovarian) | TGI (SK-OV-3 ovarian) | TGI (RXF 393 renal) | TGI (PC-3 prostate)
> 51.2 µM: TGI (HL-60(TB) leukemia)
> 60 µM: TGI (RPMI-8226 leukemia)
inactive: GI50 (SF-539 CNS) > 100 µM | GI50 (T-47D breast) > 100 µM | GI50 (SR leukemia) > 100 µM | GI50 (HT29 colon) > 100 µM | GI50 (A498 renal) > 79 µM | GI50 (HS 578T breast) 57.7 µM | GI50 (MCF7 breast) > 52.1 µM | GI50 (NCI-H322M lung) > 100 µM | GI50 (SNB-75 CNS) > 100 µM | GI50 (786-0 renal) > 100 µM | GI50 (OVCAR-4 ovarian) > 72.7 µM | GI50 (SN12C renal) > 100 µM | GI50 (IGROV1 ovarian) > 100 µM | GI50 (UACC-257 melanoma) > 87.1 µM | GI50 (NCI-H460 NSCLC) > 100 µM | GI50 (DU-145 prostate) > 100 µM | GI50 (EKVX NSCLC) > 100 µM | GI50 (SK-MEL-5 melanoma) > 59.4 µM | GI50 (SW-620 colon) > 100 µM | GI50 (HCT-116 colon) > 100 µM | GI50 (MDA-MB-468 breast) > 78.2 µM | GI50 (SF-295 CNS) > 100 µM | GI50 (OVCAR-5 ovarian) > 100 µM | GI50 (OVCAR-8 ovarian) > 100 µM | GI50 (SK-MEL-2 melanoma) > 79.6 µM | GI50 (LOX IMVI melanoma) 42.1 µM | GI50 (CCRF-CEM leukemia) > 63.3 µM | GI50 (A549 NSCLC) > 100 µM | GI50 (KM12 colon) 98.3 µM | GI50 (SF-268 CNS) > 100 µM | GI50 (NCI-H226 lung) > 89.3 µM | GI50 (OVCAR-3 ovarian) > 73.9 µM | GI50 (NCI-H522 lung) > 43.5 µM | GI50 (HCC-2998 colon) > 77.4 µM | GI50 (UO-31 renal) 17.9 µM | GI50 (NCI-H23 lung) 99.2 µM | GI50 (HCT-15 colon) > 100 µM | GI50 (MDA-MB-231 breast) > 75.9 µM | GI50 (UACC-62 melanoma) > 57.2 µM | GI50 (MALME-3M melanoma) > 82.1 µM | GI50 (SK-MEL-28 melanoma) > 100 µM | GI50 (NCI/ADR-RES ovarian) > 100 µM | GI50 (RPMI-8226 leukemia) 20 µM | GI50 (HL-60(TB) leukemia) > 36 µM | GI50 (SK-OV-3 ovarian) > 83.6 µM | GI50 (RXF 393 renal) > 81.5 µM | GI50 (PC-3 prostate) > 76.7 µM
